{"source": "patent US20230322846A9", "about": "“NEUROACTIVE STEROIDS AND THEIR METHODS OF USE” (SAGE THERAPEUTICS, INC., priority 2018, published 2023)", "data": [{"molecular_target": "[35S]-TBPS binding, rat brain cortical membranes", "experiment": "Steroid inhibition of [35S]-TBPS binding", "settings": "3 nM [35S]-TBPS, in the presence of 5 mM GABA", "procedure,_shortened": "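In the presence of […], compounds (DMSO 0.5% final) competed with 3 nM [35S]-TBPS for Sprague-Dawley rat cortical membranes, pH 7.4 phosphate buffer, 90 min, room temperature. Filtration and scintillation counting; specific binding defined by […]; IC50 and maximal inhibition fitted per experiment, averaged as mean ± SEM.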", "units": {"IC50": "µM"}, "values": [{"smiles": "C[C@@H](Cn1cc(C#N)cn1)[C@H]1CC[C@H]2[C@@H]3CC[C@@H]4C[C@](C)(O)CC[C@]4(C)[C@H]3CC[C@]12C", "note": "[Example 305, 1-((R)-2-((3R,5R,8R,9S,10S,13S,14S,17R)-3-hydroxy-3,10,13-trimethylhexadecahydro-1H-cyclopenta[a]phenanthren-17-yl)propyl)-1H-pyrazole-4-carbonitrile]", "IC50": "< 0.1"}, {"smiles": "C[C@@H](Nc1cccnc1)[C@H]1CC[C@H]2[C@@H]3CC[C@@H]4C[C@](C)(O)CC[C@@H]4[C@H]3CC[C@]12C", "note": "[Example 203]", "IC50": "< 0.1"}, {"smiles": "C[C@H](Cc1ncc(CO)s1)[C@H]1CC[C@H]2[C@@H]3CC[C@@H]4C[C@](C)(O)CC[C@@H]4[C@H]3CC[C@]12C", "note": "[Example 429]", "IC50": "< 0.1"}, {"smiles": "CCOC[C@@]1(O)CC[C@H]2[C@H](CC[C@@H]3[C@@H]2CC[C@]2(C)[C@@H]([C@@H](C)NC(=O)c4ccccc4F)CC[C@@H]32)C1", "note": "[Example 42, N—((R)-1-((3R,5R,8R,9R,10S,13S,14S,17S)-3-(ethoxymethyl)-3-hydroxy-13-methylhexadecahydro-1H-cyclopenta[a]phenanthren-17-yl)ethyl)-2-fluorobenzamide]", "IC50": "0.1 to 1"}, {"smiles": "COC[C@@]1(O)CC[C@H]2[C@H](CC[C@@H]3[C@@H]2CC[C@]2(C)[C@@H]([C@H](C)NC(=O)c4ccc(F)cc4)CC[C@@H]32)C1", "note": "[Example 114]", "IC50": "1 to 10"}, {"smiles": "CCOC[C@@]1(O)CC[C@H]2[C@H](CC[C@@H]3[C@@H]2CC[C@]2(C)[C@@H](CNC(=O)c4ccccc4)CC[C@@H]32)C1", "note": "[Example 15, N-(((3R,5R,8R,9R,10S,13S,14S,17S)-3-(ethoxymethyl)-3-hydroxy-13-methylhexadecahydro-1H-cyclopenta[a]phenanthren-17-yl)methyl)benzamide]", "IC50": "< 0.1"}, {"smiles": "C[C@@]1(O)CC[C@H]2[C@H](CC[C@@H]3[C@@H]2CC[C@]2(C)[C@@H](CN4C[C@@H](c5ccccc5)CC4=O)CC[C@@H]32)C1", "note": "[Example 9, (R)-1-(((3R,5R,8R,9R,10S,13S,14S,17S)-3-hydroxy-3,13-dimethylhexadecahydro-1H-cyclopenta[a]phenanthren-17-yl)methyl)-4-phenylpyrrolidin-2-one]", "IC50": "0.1 to 1"}, {"smiles": "CCOC[C@@]1(O)CC[C@H]2[C@H](CC[C@@H]3[C@@H]2CC[C@]2(C)[C@@H]([C@H](C)n4cc(C#N)cn4)CC[C@@H]32)C1", "note": "[Example 163, 1-((S)-1-((3R,5R,8R,9R,10S,13S,14S,17S)-3-(ethoxymethyl)-3-hydroxy-13-methylhexadecahydro-1H-cyclopenta[a]phenanthren-17-yl)ethyl)-1H-pyrazole-4-carbonitrile]", "IC50": "1 to 10"}, {"smiles": "COC[C@@]1(O)CC[C@H]2[C@H](CC[C@@H]3[C@@H]2CC[C@]2(C)[C@@H]([C@H](C)n4cc(C#N)cn4)CC[C@@H]32)C1", "note": "[Example 151, 1-((S)-1-((3R,5R,8R,9R,10S,13S,14S,17S)-3-hydroxy-3-(methoxymethyl)-13-methylhexadecahydro-1H-cyclopenta[a]phenanthren-17-yl)ethyl)-1H-pyrazole-4-carbonitrile]", "IC50": "1 to 10"}, {"smiles": "CCC[C@@]1(O)CC[C@H]2[C@@H](CC[C@@H]3[C@@H]2CC[C@]2(C)[C@@H]([C@H](C)Cn4cc(C#N)cn4)CC[C@@H]32)C1", "note": "[Example 350, 1-((S)-2-((3R,5S,8R,9R,10S,13S,14S,17R)-3-hydroxy-13-methyl-3-propylhexadecahydro-1H-cyclopenta[a]phenanthren-17-yl)propyl)-1H-pyrazole-4-carbonitrile]", "IC50": "≥ 10"}, {"smiles": "COC[C@@]1(O)CC[C@H]2[C@H](CC[C@@H]3[C@@H]2CC[C@]2(C)[C@@H](CNC(=O)c4ccccc4)CC[C@@H]32)C1", "note": "[Example 16, N-(((3R,5R,8R,9R,10S,13S,14S,17S)-3-hydroxy-3-(methoxymethyl)-13-methylhexadecahydro-1H-cyclopenta[a]phenanthren-17-yl)methyl)benzamide]", "IC50": "< 0.1"}, {"smiles": "CCOC[C@@]1(O)CC[C@@]2(C)[C@H](CC[C@@H]3[C@@H]2CC[C@]2(C)[C@@H]([C@@H](C)NS(=O)(=O)c4ccc(C#N)cn4)CC[C@@H]32)C1", "note": "[Example 77, 5-cyano-N—((R)-1-((3R,5R,8R,9S,10S,13S,14S,17S)-3-(ethoxymethyl)-3-hydroxy-10,13-dimethylhexadecahydro-1H-cyclopenta[a]phenanthren-17-yl)ethyl)pyridine-2-sulfonamide]", "IC50": "< 0.1"}, {"smiles": "COC[C@@]1(O)CC[C@H]2[C@H](CC[C@@H]3[C@@H]2CC[C@]2(C)[C@@H]([C@H](C)Cn4ccc(C#N)n4)CC[C@@H]32)C1", "note": "[Example 35, 1-((S)-2-((3R,5R,8R,9R,10S,13S,14S,17R)-3-hydroxy-3-(methoxymethyl)-13-methylhexadecahydro-1H-cyclopenta[a]phenanthren-17-yl)propyl)-1H-pyrazole-3-carbonitrile]", "IC50": "< 0.1"}, {"smiles": "CCOC[C@@]1(O)CC[C@H]2[C@H](CC[C@@H]3[C@@H]2CC[C@]2(C)[C@@H]([C@@H](C)Cc4cccc(C#N)c4)CC[C@@H]32)C1", "note": "[Example 402, 3-((S)-2-((3R,5R,8R,9R,10S,13R,14S,17R)-3-(ethoxymethyl)-3-hydroxy-13-methylhexadecahydro-1H-cyclopenta[a]phenanthren-17-yl)propyl)benzonitrile]", "IC50": "< 0.1"}, {"smiles": "CCOC[C@@]1(O)CC[C@@]2(C)[C@H](CC[C@@H]3[C@@H]2CC[C@]2(C)[C@@H]([C@@H](C)N[C@H](C)c4ccccc4)CC[C@@H]32)C1", "note": "[Example 207]", "IC50": "1 to 10"}, {"smiles": "Cc1cc(C#N)ccc1N[C@H](C)[C@H]1CC[C@H]2[C@@H]3CC[C@@H]4C[C@](C)(O)CC[C@@H]4[C@H]3CC[C@]12C", "note": "[Example 250]", "IC50": "< 0.1"}, {"smiles": "COC[C@@]1(O)CC[C@H]2[C@H](CC[C@@H]3[C@@H]2CC[C@]2(C)[C@@H]([C@H](C)Cn4nccc4C#N)CC[C@@H]32)C1", "note": "[Example 34, 1-((S)-2-((3R,5R,8R,9R,10S,13S,14S,17R)-3-hydroxy-3-(methoxymethyl)-13-methylhexadecahydro-1H-cyclopenta[a]phenanthren-17-yl)propyl)-1H-pyrazole-5-carbonitrile]", "IC50": "< 0.1"}, {"smiles": "C[C@H](Cn1ccnn1)[C@H]1CC[C@H]2[C@@H]3CC[C@H]4C[C@](C)(O)CC[C@@H]4[C@H]3CC[C@]12C", "note": "[Example 60, (3R,5S,8R,9R,10S,13S,14S,17R)-17-((S)-1-(1H-1,2,3-triazol-1-yl)propan-2-yl)-3,13-dimethylhexadecahydro-1H-cyclopenta[a]phenanthren-3-ol]", "IC50": "0.1 to 1"}, {"smiles": "C[C@@]1(O)CC[C@H]2[C@H](CC[C@@H]3[C@@H]2CC[C@]2(C)[C@@H]([C@H](Nc4ccccc4)C(F)(F)F)CC[C@@H]32)C1", "note": "[Example 505]", "IC50": "0.1 to 1"}, {"smiles": "CCOC[C@@]1(O)CC[C@@]2(C)[C@H](CC[C@@H]3[C@@H]2CC[C@]2(C)[C@@H]([C@@H](C)Cn4ccc(C#N)n4)CC[C@@H]32)C1", "note": "[Example 279, 1-((R)-2-((3R,5R,8R,9S,10S,13S,14S,17R)-3-(ethoxymethyl)-3-hydroxy-10,13-dimethylhexadecahydro-1H-cyclopenta[a]phenanthren-17-yl)propyl)-1H-pyrazole-3-carbonitrile]", "IC50": "< 0.1"}]}]}
